In ChEMBL document CHEMBL1156829 (Proc Natl Acad Sci U S A, 2008):

What was measured:
Plasmodium falciparum [1] = experiment: NOVARTIS: Inhibition of Plasmodium falciparum W2 (drug-resistant) proliferation in erythrocyte-based infection assay; assay type: functional, organism-based; conditions: Plasmodium falciparum, W2; read-out: EC50
[2] = NOVARTIS: Cytotoxicity against human hepatocellular carcinoma cell line (Huh7); assay type: toxicity, cell-based, Huh-7; conditions: Huh7 cells (hepatocellular carcinoma cell line)
Plasmodium falciparum [3] = experiment: NOVARTIS: Inhibition of Plasmodium falciparum 3D7 (drug-susceptible) proliferation in erythrocyte-based infection assay; assay type: functional, organism-based; conditions: Plasmodium falciparum, 3D7

CCN(CC)CCCC(C)N=c1[nH]c(C=Cc2ccccc2OC)nc2cc(Cl)ccc12 (stereo unspecified)
EC50 (Plasmodium falciparum [1]): 160 nM | CC50 [2]: 7930 nM | EC50 (Plasmodium falciparum [3]): 30.8 nM

CC(=O)NC(CO)C(O)c1ccc([N+](=O)[O-])cc1 (stereo unspecified)
EC50 (Plasmodium falciparum [1]): 2050 nM | CC50 [2]: > 100000 nM | EC50 (Plasmodium falciparum [3]): > 9720 nM

COc1ccc(Nc2nc(NN=Cc3cc(Br)c(O)cc3O)nc(Nc3ccc([N+](=O)[O-])cc3)n2)cc1
EC50 (Plasmodium falciparum [1]): 198 nM | CC50 [2]: 9580 nM | EC50 (Plasmodium falciparum [3]): 75 nM

CO[C@H](C(=O)[C@@H](O)[C@@H](C)O)[C@@H]1Cc2cc3cc(O[C@H]4C[C@@H](O[C@@H]5C[C@@H](O)[C@@H](O)[C@@H](C)O5)[C@@H](O)[C@H](C)O4)c(C)c(O)c3c(O)c2C(=O)[C@H]1O[C@H]1C[C@@H](O[C@H]2C[C@@H](O[C@H]3C[C@](C)(O)[C@@H](O)[C@H](C)O3)[C@H](O)[C@@H](C)O2)[C@H](O)[C@H](C)O1
EC50 (Plasmodium falciparum [1]): 208 nM | CC50 [2]: > 10000 nM | EC50 (Plasmodium falciparum [3]): 497 nM

C(=NNc1nc2ccccc2[nH]1)c1c[nH]c2ccccc12
EC50 (Plasmodium falciparum [1]): 391 nM | CC50 [2]: 19200 nM | EC50 (Plasmodium falciparum [3]): 330 nM

CC(C)(C)NC(=S)Nc1cccc(Cl)c1Cl
EC50 (Plasmodium falciparum [1]): 2110 nM | CC50 [2]: > 100000 nM | EC50 (Plasmodium falciparum [3]): > 7240 nM

COc1ccc2c(c1)OC(O)(C(F)(F)C(F)(F)F)CC2=O (stereo unspecified)
EC50 (Plasmodium falciparum [1]): 1000 nM | CC50 [2]: 49700 nM | EC50 (Plasmodium falciparum [3]): 442 nM

CCCCCCc1ccc(C(=O)N(C)CCCNc2ccnc3cc(Cl)ccc23)cc1
EC50 (Plasmodium falciparum [1]): 219 nM | CC50 [2]: > 10800 nM | EC50 (Plasmodium falciparum [3]): 670 nM

CC[n+]1c(/C=C/c2cc(Br)ccc2OC)ccc2ccccc21
EC50 (Plasmodium falciparum [1]): 202 nM | CC50 [2]: > 10000 nM | EC50 (Plasmodium falciparum [3]): 155 nM

CCN(CC)S(=O)(=O)c1ccc(C(=O)c2c(C)c(C(=O)C(F)(F)F)c3ccccn23)cc1
EC50 (Plasmodium falciparum [1]): 2020 nM | CC50 [2]: > 100000 nM | EC50 (Plasmodium falciparum [3]): 3150 nM

CCN(CC)c1cc2oc3cc(=[N+](CC)CC)ccc-3nc2c2ccccc12
EC50 (Plasmodium falciparum [1]): 826 nM | CC50 [2]: 39800 nM | EC50 (Plasmodium falciparum [3]): 865 nM

COc1ccc2nc(C)cc(Nc3ccc(N4CCN(C)CC4)cc3)c2c1
EC50 (Plasmodium falciparum [1]): 153 nM | CC50 [2]: 7330 nM | EC50 (Plasmodium falciparum [3]): 83.2 nM

CCOC(=O)c1c(S(=O)(=O)N2CCCC(C(=O)N3CCN(c4cccc(C)c4C)CC3)C2)c(C)n(C)c1C (stereo unspecified)
EC50 (Plasmodium falciparum [1]): 2120 nM | CC50 [2]: > 100000 nM | EC50 (Plasmodium falciparum [3]): 923 nM

O=C(Nc1ccc(C2=NCCN2)cc1)Nc1cccc(C(=O)Nc2ccc(C3=NCCN3)cc2)c1
EC50 (Plasmodium falciparum [1]): 211 nM | CC50 [2]: > 10000 nM | EC50 (Plasmodium falciparum [3]): 108 nM

CC(C)NC(=O)N1CCN(C(=O)C(Cc2c[nH]c3ccccc23)NC(=O)Nc2cccc(C#N)c2)CC1C (stereo unspecified)
EC50 (Plasmodium falciparum [1]): 211 nM | CC50 [2]: > 10000 nM | EC50 (Plasmodium falciparum [3]): 56.7 nM

CCOC(=O)c1ccc(NC(=O)c2cc(-c3ccccc3)nc3ccc(C)cc23)cc1
EC50 (Plasmodium falciparum [1]): 2100 nM | CC50 [2]: > 100000 nM | EC50 (Plasmodium falciparum [3]): > 12500 nM

Cc1ccc(-c2cc3nc4c(c(O)n3n2)CCCC4)cc1
EC50 (Plasmodium falciparum [1]): 2100 nM | CC50 [2]: > 100000 nM | EC50 (Plasmodium falciparum [3]): 1600 nM

CN(CCCNc1ccnc2cc(Cl)ccc12)C(=O)C1CCC1
EC50 (Plasmodium falciparum [1]): 93 nM | CC50 [2]: 4570 nM | EC50 (Plasmodium falciparum [3]): 192 nM

COc1ccccc1NC1=CC(=NS(=O)(=O)c2ccc(F)cc2)c2ccccc2C1=O
EC50 (Plasmodium falciparum [1]): 431 nM | CC50 [2]: 20600 nM | EC50 (Plasmodium falciparum [3]): 375 nM

Nc1ncc(Br)cc1S(=O)(=O)NCCC(=O)N1CC=C(c2ccccc2)CC1
EC50 (Plasmodium falciparum [1]): 1020 nM | CC50 [2]: 48900 nM | EC50 (Plasmodium falciparum [3]): 384 nM

O=C(NCCc1ccccc1)c1cnc(NCCCn2ccnc2)nc1NCC1CCCCC1
EC50 (Plasmodium falciparum [1]): 208 nM | CC50 [2]: > 10000 nM | EC50 (Plasmodium falciparum [3]): 91.4 nM

O=C(C=Cc1ccc(Br)cc1)NC(=O)c1ccccc1O
EC50 (Plasmodium falciparum [1]): 2040 nM | CC50 [2]: > 100000 nM | EC50 (Plasmodium falciparum [3]): 684 nM

CCc1ccccc1-n1c(C(C)N(C)C(=O)/C=C/c2ccc([N+](=O)[O-])cc2)nc2ccccc2c1=O (stereo unspecified)
EC50 (Plasmodium falciparum [1]): 174 nM | CC50 [2]: 8350 nM | EC50 (Plasmodium falciparum [3]): 266 nM

CSC1=NC(=Nc2ccccc2C)C2(CCC(C(C)(C)C)CC2)N1c1ccc(O)cc1 (stereo unspecified)
EC50 (Plasmodium falciparum [1]): 208 nM | CC50 [2]: > 10000 nM | EC50 (Plasmodium falciparum [3]): 243 nM

O=C(C=Cc1ccccc1)Nc1ccc(-c2nc3cc(NC(=O)C=Cc4ccccc4)ccc3[nH]2)cc1
EC50 (Plasmodium falciparum [1]): 116 nM | CC50 [2]: 5700 nM | EC50 (Plasmodium falciparum [3]): 56 nM

COc1ccc(-c2c[n+](Cc3ccc(Cl)cc3Cl)c3n2CCC3)cc1
EC50 (Plasmodium falciparum [1]): 667 nM | CC50 [2]: 31800 nM | EC50 (Plasmodium falciparum [3]): 189 nM

Cc1cccc2cc(C(c3nnnn3C3CCCC3)N3CCCC4(CCCCC4)C3)c(=O)[nH]c12 (stereo unspecified)
EC50 (Plasmodium falciparum [1]): > 209 nM | CC50 [2]: > 10000 nM | EC50 (Plasmodium falciparum [3]): > 1250 nM

O=C1[C@H]2Cc3c([nH]c4ccccc34)C(CCc3ccccc3)N2C(=O)CN1CCc1c[nH]c2ccccc12 (stereo partly specified)
EC50 (Plasmodium falciparum [1]): 208 nM | CC50 [2]: > 10000 nM | EC50 (Plasmodium falciparum [3]): 1350 nM

CCN1CCN(c2cc(C)c3cc(NC(=O)C=Cc4cccc(Cl)c4)ccc3n2)CC1
EC50 (Plasmodium falciparum [1]): 1260 nM | CC50 [2]: 61400 nM | EC50 (Plasmodium falciparum [3]): 824 nM

CC(=O)N(C1=C(N(C)C)C(=O)c2ccccc2C1=O)c1cccc(Cl)c1
EC50 (Plasmodium falciparum [1]): 64.9 nM | CC50 [2]: 3180 nM | EC50 (Plasmodium falciparum [3]): 27.3 nM

CSc1cccc([C@@H]2C[C@H]3CN(c4ccccc4)C(=O)[C@]34CCCN24)c1
EC50 (Plasmodium falciparum [1]): 480 nM | CC50 [2]: 23500 nM | EC50 (Plasmodium falciparum [3]): 1210 nM

CCCCCc1ccc(C(=O)N(C)CCCNc2ccnc3cc(Cl)ccc23)cc1
EC50 (Plasmodium falciparum [1]): 310 nM | CC50 [2]: 15100 nM | EC50 (Plasmodium falciparum [3]): 250 nM

CN(CCCNc1ccnc2cc(Cl)ccc12)S(=O)(=O)c1cc(Cl)ccc1Cl
EC50 (Plasmodium falciparum [1]): 251 nM | CC50 [2]: > 12200 nM | EC50 (Plasmodium falciparum [3]): 398 nM

Cc1ccc(OCC(=O)Nc2cccc(-c3nc4ncccc4o3)c2)cc1C
EC50 (Plasmodium falciparum [1]): 2050 nM | CC50 [2]: > 100000 nM | EC50 (Plasmodium falciparum [3]): 1900 nM

COc1ccc(CN2CCN(C(=O)c3cccnc3)CC2)cc1OC
EC50 (Plasmodium falciparum [1]): 2010 nM | CC50 [2]: > 100000 nM | EC50 (Plasmodium falciparum [3]): 349 nM

COc1cc(-c2nc(-c3ccccc3)c(-c3cccc(C(F)(F)F)c3)[nH]2)cc(OC)c1O
EC50 (Plasmodium falciparum [1]): 902 nM | CC50 [2]: 44900 nM | EC50 (Plasmodium falciparum [3]): 622 nM

Fc1ccc(C(CCNc2ncnc3c2[nH]c2ccccc23)c2ccco2)cc1 (stereo unspecified)
EC50 (Plasmodium falciparum [1]): 419 nM | CC50 [2]: 20200 nM | EC50 (Plasmodium falciparum [3]): 216 nM

Cc1cccc(C)c1NC(=O)CN1C(=O)C(C)(C)Oc2ccc(C(=O)NC(C)(C)C)cc21
EC50 (Plasmodium falciparum [1]): 2070 nM | CC50 [2]: > 100000 nM | EC50 (Plasmodium falciparum [3]): > 9240 nM

Cc1cc(N2CCN(C)CC2)nc2ccc(NC(=O)Nc3ccccc3Cl)cc12
EC50 (Plasmodium falciparum [1]): 2060 nM | CC50 [2]: > 100000 nM | EC50 (Plasmodium falciparum [3]): 3100 nM

Cc1noc(-c2ccc(O)cc2O)c1-c1ccc2c(c1)OCCCO2
EC50 (Plasmodium falciparum [1]): 209 nM | CC50 [2]: > 10000 nM | EC50 (Plasmodium falciparum [3]): 470 nM

COc1ccc(-c2cc(C(=O)Nc3cc(Oc4ccc(NC(C)=O)cc4)cc([N+](=O)[O-])c3)c3ccccc3n2)cc1
EC50 (Plasmodium falciparum [1]): 2110 nM | CC50 [2]: > 100000 nM | EC50 (Plasmodium falciparum [3]): > 12500 nM

CC(C)=CCCC(C)=CCCC(C)NCCN1CCNCC1 (stereo unspecified)
EC50 (Plasmodium falciparum [1]): 140 nM | CC50 [2]: 6690 nM | EC50 (Plasmodium falciparum [3]): 411 nM

CCCCc1c(C)nc2c(OC)cccc2c1O
EC50 (Plasmodium falciparum [1]): 2110 nM | CC50 [2]: > 100000 nM | EC50 (Plasmodium falciparum [3]): 1690 nM

CC(C)(C)c1ccc(C(=O)NCCCCNc2ccnc3cc(Cl)ccc23)cc1
EC50 (Plasmodium falciparum [1]): 230 nM | CC50 [2]: > 10900 nM | EC50 (Plasmodium falciparum [3]): 176 nM

CCOc1ccc(CCN2C(=S)N(c3cccc(C(F)(F)F)c3)C(=O)C2CC(=O)Nc2ccc(C(=O)OC)cc2)cc1OCC (stereo unspecified)
EC50 (Plasmodium falciparum [1]): 580 nM | CC50 [2]: 28500 nM | EC50 (Plasmodium falciparum [3]): 1740 nM

CC(=O)N(C)C1=C(N2CCCCCC2)C(=O)c2ccccc2C1=O
EC50 (Plasmodium falciparum [1]): 38.6 nM | CC50 [2]: 1860 nM | EC50 (Plasmodium falciparum [3]): 35.8 nM

COc1cc(NCCCC(C)Nc2ccnc3cc4ccccc4cc23)c2ncccc2c1 (stereo unspecified)
EC50 (Plasmodium falciparum [1]): 49.9 nM | CC50 [2]: 2470 nM | EC50 (Plasmodium falciparum [3]): 83.5 nM

CCCn1nc(NS(C)(=O)=O)c2cc3cccc(C)c3nc21
EC50 (Plasmodium falciparum [1]): 2020 nM | CC50 [2]: > 100000 nM | EC50 (Plasmodium falciparum [3]): > 9100 nM

Cc1ccc(C)n1-c1ccc(C(=O)N2CCC(C)CC2)cc1
EC50 (Plasmodium falciparum [1]): 2040 nM | CC50 [2]: > 100000 nM | EC50 (Plasmodium falciparum [3]): 5120 nM

CCOc1ccc2ncc(S(=O)(=O)c3ccc(OC)cc3)c(N3CCN(C)CC3)c2c1
EC50 (Plasmodium falciparum [1]): 2080 nM | CC50 [2]: > 100000 nM | EC50 (Plasmodium falciparum [3]): 100 nM

Cc1nc2c(C)c(-c3ccccc3)nn2c(O)c1C
EC50 (Plasmodium falciparum [1]): 2080 nM | CC50 [2]: > 100000 nM | EC50 (Plasmodium falciparum [3]): 1020 nM

CCCCNC(=O)C(CC)Sc1nnc(-c2ccc(C)cc2)c(-c2ccc(C)cc2)n1 (stereo unspecified)
EC50 (Plasmodium falciparum [1]): 2050 nM | CC50 [2]: > 100000 nM | EC50 (Plasmodium falciparum [3]): 471 nM
